Experiment: Stability study according to ICH guidelines
Type: physicochemical
Method: The total impurity content is measured after synthesis of the compound and compared with the measured total impurity content after storage for a designated period of time. […] Stability studies were conducted, according to the ICH guidelines, for 6 months at accelerated condition (40° C./75% RH) and at room temperature.

total impurity content after storage (about 6 months at about 40° c. and about 75% RH): less than 4%
total impurity content (at 0 days): less than 3%
SMILES: Cc1nc(Nc2ncc(C(=O)Nc3c(C)cccc3Cl)s2)cc(N2CCN(CCO)CC2)n1 [N-(2-chloro-6-methylphenyl)-2-[[6-[4-(2-hydroxyethyl)-1-piperazinyl]-2-methyl-4-pyrimidinyl]amino]-5-thiazolecarboxamide]

Source: patent US20220175774A1, “Bioavailable Oral Dosage Form Of Tyrosine-Kinase Inhibitor” (Alembic Pharmaceuticals Limited, priority 2020, published 2022)
